According to publication PMC11995724, “Antibiotic target discovery by integrated phenotypic and activity-based profiling of electrophilic fragments” (Cell chemical biology, 2025):
Structures can show the parent of a compound that is named as a salt.

Test: in vitro
Details: human, hek293t cells

O=C(CCl)NCC1CN(Cc2ccccc2)CC12CCC2 (stereo not drawn) [7-H03, N-({6-benzyl-6-azaspiro[3.4]octan-8-yl}methyl)-2-chloroacetamide hydrochloride]
viability at 48 h, 25 µM: 0.629%

C=CC(=O)N(C)Cc1ccn(CC)n1 [1-L16, N-[(1-ethyl-1H-pyrazol-3-yl)methyl]-N-methylprop-2-enamide]
viability at 48 h, 25 µM: 75.2%

CC(Cl)C(=O)Nc1ccc(S(N)(=O)=O)cc1 (stereo not drawn) [6-B06, 2-chloro-N-(4-sulfamoylphenyl)propanamide]
viability at 48 h, 25 µM: 101%

O=C(CCl)NCCSc1ccccc1 [4-G21, 2-chloro-N-[2-(phenylsulfanyl)ethyl]acetamide]
viability at 48 h, 25 µM: 1.68%

CC(Cl)C(=O)N1CCCC(c2cnn(C)c2)C1 (stereo not drawn) [7-M16, 2-chloro-1-[3-(1-methyl-1H-pyrazol-4-yl)piperidin-1-yl]propan-1-one]
viability at 48 h, 25 µM: 82%

COC1(CNC(=O)CCl)CCC(C(F)F)CC1 (stereo not drawn) [6-D21, 2-chloro-N-{[4-(difluoromethyl)-1-methoxycyclohexyl]methyl}acetamide]
viability at 48 h, 25 µM: 52.3%

Cc1ccc(NC(=O)C(C#N)=CC2=Cc3ccccc3OC2)cc1 [9-B19, 3-(2H-chromen-3-yl)-2-cyano-N-(4-methylphenyl)prop-2-enamide]
viability at 48 h, 25 µM: 119%

C=CCNC(=O)C(C#N)=Cc1ccc(C)s1 [9-F05, 2-cyano-3-(5-methylthiophen-2-yl)-N-(prop-2-en-1-yl)prop-2-enamide]
viability at 48 h, 25 µM: 108%

C=CC(=O)N1CCC(n2cc(CO)nn2)C1 (stereo not drawn) [2-E08, 1-{3-[4-(hydroxymethyl)-1H-1,2,3-triazol-1-yl]pyrrolidin-1-yl}prop-2-en-1-one]
viability at 48 h, 25 µM: 81.8%

COc1cccc(NC(=O)C(C#N)=Cc2ccc([N+](=O)[O-])o2)c1 [8-A19, 2-cyano-N-(3-methoxyphenyl)-3-(5-nitrofuran-2-yl)prop-2-enamide]
viability at 48 h, 25 µM: 72.4%

CC(Cl)C(=O)NCC1CCCCC1 (stereo not drawn) [4-I10, 2-chloro-N-(cyclohexylmethyl)propanamide]
viability at 48 h, 25 µM: 90.9%

O=C(CCl)N(Cc1cccs1)C1CCS(=O)(=O)C1 (stereo not drawn) [4-L12, 2-chloro-N-(1,1-dioxo-1lambda6-thiolan-3-yl)-N-[(thiophen-2-yl)methyl]acetamide]
viability at 48 h, 25 µM: 1.65%

C=CC(=O)N1CCCC1c1c(C)nn(CC(C)C)c1Cl (stereo not drawn) [1-F19, 1-{2-[5-chloro-3-methyl-1-(2-methylpropyl)-1H-pyrazol-4-yl]pyrrolidin-1-yl}prop-2-en-1-one]
viability at 48 h, 25 µM: 119%

C=CC(=O)NC1CN(C(C)=O)C1 [1-N22, N-(1-acetylazetidin-3-yl)prop-2-enamide]
viability at 48 h, 25 µM: 73.1%

COc1ccc2ccccc2c1-c1cc(CNC(=O)C(C)Cl)on1 (stereo not drawn) [7-E08, 2-chloro-N-{[3-(2-methoxynaphthalen-1-yl)-1,2-oxazol-5-yl]methyl}propanamide]
viability at 48 h, 25 µM: 87.9%

C=CC(=O)NC1CCN(Cc2ccc(Cl)cc2)CC1 [1-N08, N-{1-[(4-chlorophenyl)methyl]piperidin-4-yl}prop-2-enamide]
viability at 48 h, 25 µM: 101%

N#CC(=Cc1ccc(-c2ccccc2F)o1)C(=O)NCc1ccccc1 [9-H10, N-benzyl-2-cyano-3-[5-(2-fluorophenyl)furan-2-yl]prop-2-enamide]
viability at 48 h, 25 µM: 92.7%

Cc1nn(-c2ccccc2)c(C)c1CN(C)C(=O)CCl [7-B03, 2-chloro-N-[(3,5-dimethyl-1-phenyl-1H-pyrazol-4-yl)methyl]-N-methylacetamide]
viability at 48 h, 25 µM: 0.804%

COc1ccc(C=C(C#N)C(N)=O)c(Cl)c1OC [9-H14, 3-(2-chloro-3,4-dimethoxyphenyl)-2-cyanoprop-2-enamide]
viability at 48 h, 25 µM: 105%

C=CC(=O)N[C@H]1CCO[C@@H]1c1ccnn1C [2-K19, N-[(2S,3S)-2-(1-methyl-1H-pyrazol-5-yl)oxolan-3-yl]prop-2-enamide]
viability at 48 h, 25 µM: 96.4%

O=C(CCl)Nc1ccccc1F [4-M16, 2-chloro-N-(2-fluorophenyl)acetamide]
viability at 48 h, 25 µM: 0.723%

CC(Cl)C(=O)NCCNC(=O)c1ccoc1 (stereo not drawn) [7-E21, 2-chloro-N-{2-[(furan-3-yl)formamido]ethyl}propanamide]
viability at 48 h, 25 µM: 90.5%

C=CC(=O)NC(CN1CCCS1(=O)=O)C1CC1 (stereo not drawn) [1-H10, N-[1-cyclopropyl-2-(1,1-dioxo-1lambda6,2-thiazolidin-2-yl)ethyl]prop-2-enamide]
viability at 48 h, 25 µM: 100%

CC(Cl)C(=O)Nc1ccccc1C(=O)c1ccccc1 (stereo not drawn) [6-G10, N-(2-benzoylphenyl)-2-chloropropanamide]
viability at 48 h, 25 µM: 102%

CC(Cl)C(=O)NCC1COc2ccccc2O1 (stereo not drawn) [4-F13, 2-chloro-N-[(2,3-dihydro-1,4-benzodioxin-2-yl)methyl]propanamide]
viability at 48 h, 25 µM: 91.4%

O=C(CCl)Nc1ccccc1C(=O)NCc1ccccc1 [4-C03, N-benzyl-2-(2-chloroacetamido)benzamide]
viability at 48 h, 25 µM: 0.33%

CN1C(=O)c2ccccc2C1CNC(=O)CCl (stereo not drawn) [7-B10, 2-chloro-N-[(2-methyl-3-oxo-2,3-dihydro-1H-isoindol-1-yl)methyl]acetamide]
viability at 48 h, 25 µM: 4.11%

C=CC(=O)NCc1nnc2n1CCCCC2 [3-N07, N-({5H,6H,7H,8H,9H-[1,2,4]triazolo[4,3-a]azepin-3-yl}methyl)prop-2-enamide]
viability at 48 h, 25 µM: 43.2%

COc1cc(C=C(C#N)C(=O)Nc2ccc(C)cc2)cc(Cl)c1O [8-P05, 3-(3-chloro-4-hydroxy-5-methoxyphenyl)-2-cyano-N-(4-methylphenyl)prop-2-enamide]
viability at 48 h, 25 µM: 95.6%

N#CC(=Cc1csnn1)C(=O)Nc1ccc(Oc2ccccc2)cc1 [8-M12, 2-cyano-N-(4-phenoxyphenyl)-3-(1,2,3-thiadiazol-4-yl)prop-2-enamide]
viability at 48 h, 25 µM: 43%

COc1cc(CNC(=O)C(C#N)=Cc2ccco2)c2ccccc2n1 [9-I05, 2-cyano-3-(furan-2-yl)-N-[(2-methoxyquinolin-4-yl)methyl]prop-2-enamide]
viability at 48 h, 25 µM: 114%

CC(Cl)C(=O)N1CCN(c2nnnn2-c2ccccc2)CC1 (stereo not drawn) [7-I12, 2-chloro-1-[4-(1-phenyl-1H-1,2,3,4-tetrazol-5-yl)piperazin-1-yl]propan-1-one]
viability at 48 h, 25 µM: 74.2%

C=CC(=O)N1CCCC(n2cc(C)cn2)C1 (stereo not drawn) [3-M12, 1-[3-(4-methyl-1H-pyrazol-1-yl)piperidin-1-yl]prop-2-en-1-one]
viability at 48 h, 25 µM: 94.4%

C=CC(=O)N1CCOC(CNC(=O)NC)C1 (stereo not drawn) [3-A18, 3-methyl-1-{[4-(prop-2-enoyl)morpholin-2-yl]methyl}urea]
viability at 48 h, 25 µM: 93.3%

Cc1ccccc1NC(=O)C(C#N)=Cc1cc(C)n(CC(C)C)c1C [8-D19, 2-cyano-3-[2,5-dimethyl-1-(2-methylpropyl)-1H-pyrrol-3-yl]-N-(2-methylphenyl)prop-2-enamide]
viability at 48 h, 25 µM: 118%

C=CC(=O)NC12CC3(C)CC(C)(CC(O)(C3)C1)C2 [1-K17, N-(3-hydroxy-5,7-dimethyladamantan-1-yl)prop-2-enamide]
viability at 48 h, 25 µM: 85.3%

C=CC(=O)Nc1ccnn1CC1CC1 [3-G09, N-[1-(cyclopropylmethyl)-1H-pyrazol-5-yl]prop-2-enamide]
viability at 48 h, 25 µM: 41.5%

CC(=O)N1c2ccc(C(=O)CCl)cc2CC1C (stereo not drawn) [10-I20, 1-(1-acetyl-2-methyl-2,3-dihydro-1H-indol-5-yl)-2-chloroethan-1-one]
viability at 48 h, 25 µM: 3.53%

CC(Cl)C(=O)N(Cc1ccccc1)C1C=CS(=O)(=O)C1 (stereo not drawn) [6-D22, N-benzyl-2-chloro-N-(1,1-dioxo-2,3-dihydro-1lambda6-thiophen-3-yl)propanamide]
viability at 48 h, 25 µM: 98%

Cc1cc(C)n(CCCNC(=O)C(C)Cl)n1 (stereo not drawn) [7-O19, 2-chloro-N-[3-(3,5-dimethyl-1H-pyrazol-1-yl)propyl]propanamide]
viability at 48 h, 25 µM: 78.1%

C=CC(=O)N1CCCC(CNC(C)=O)C1 (stereo not drawn) [3-E15, N-{[1-(prop-2-enoyl)piperidin-3-yl]methyl}acetamide]
viability at 48 h, 25 µM: 46.4%

Cc1nc2ccccc2n(CCCN(C)C(=O)CCl)c1=O [6-D04, 2-chloro-N-methyl-N-[3-(3-methyl-2-oxo-1,2-dihydroquinoxalin-1-yl)propyl]acetamide]
viability at 48 h, 25 µM: 1.73%

C=CC(=O)N1CCOCC2(CC2)C1 [2-M15, 1-{5-oxa-8-azaspiro[2.6]nonan-8-yl}prop-2-en-1-one]
viability at 48 h, 25 µM: 180%

COc1ccc(S(N)(=O)=O)cc1NC(=O)CCl [6-O03, 2-chloro-N-(2-methoxy-5-sulfamoylphenyl)acetamide]
viability at 48 h, 25 µM: 0.606%

CC(Cl)C(=O)NC1CCN(c2nnnn2C)CC1 (stereo not drawn) [7-K08, 2-chloro-N-[1-(1-methyl-1H-1,2,3,4-tetrazol-5-yl)piperidin-4-yl]propanamide]
viability at 48 h, 25 µM: 82.1%

N#CC(=Cc1ccc(-c2ccccc2)cc1)C(=O)NCc1ccccc1 [8-C06, N-benzyl-3-{[1,1'-biphenyl]-4-yl}-2-cyanoprop-2-enamide]
viability at 48 h, 25 µM: 81.4%

C=CC(=O)NCc1ccnc(N2CCOCC2)c1 [1-C09, N-{[2-(morpholin-4-yl)pyridin-4-yl]methyl}prop-2-enamide]
viability at 48 h, 25 µM: 70.7%

O=C(CCl)NCc1ccccc1[N+](=O)[O-] [6-A22, 2-chloro-N-[(2-nitrophenyl)methyl]acetamide]
viability at 48 h, 25 µM: 0.388%

N#CC(=Cc1ccc([N+](=O)[O-])cc1)C(=O)Nc1cccc2ncccc12 [9-K21, 2-cyano-3-(4-nitrophenyl)-N-(quinolin-5-yl)prop-2-enamide]
viability at 48 h, 25 µM: 114%

Cn1ccnc1C(NC(=O)CCl)c1ccccc1 (stereo not drawn) [4-H20, 2-chloro-N-[(1-methyl-1H-imidazol-2-yl)(phenyl)methyl]acetamide]
viability at 48 h, 25 µM: 44.4%

C=CC(=O)NC(Cc1nc(C)no1)c1ccccc1 (stereo not drawn) [1-B22, N-[2-(3-methyl-1,2,4-oxadiazol-5-yl)-1-phenylethyl]prop-2-enamide]
viability at 48 h, 25 µM: 68.5%

Cc1noc(C)c1CC(=O)N1CCN(C(=O)C(C)Cl)CC1 (stereo not drawn) [6-F11, 2-chloro-1-{4-[2-(3,5-dimethyl-1,2-oxazol-4-yl)acetyl]piperazin-1-yl}propan-1-one]
viability at 48 h, 25 µM: 106%

COCCNC(=O)C(C#N)=Cc1cccc(O)c1 [9-H08, 2-cyano-3-(3-hydroxyphenyl)-N-(2-methoxyethyl)prop-2-enamide]
viability at 48 h, 25 µM: 121%

CCc1cnc(N2CCN(C(=O)C(C)Cl)CC2)s1 (stereo not drawn) [7-C20, 2-chloro-1-[4-(5-ethyl-1,3-thiazol-2-yl)piperazin-1-yl]propan-1-one]
viability at 48 h, 25 µM: 79.5%
